According to the SangsterLogP compilation:
Where a SMILES comes first, the peptide text is derived from it.

How the values were obtained:
[1] = method code SF-AS, from DOI: 10.1002/qsar.19900090302; details: pH 7.0
[2] = method code SF-HPLC, from DOI: 10.1002/qsar.19900090302; details: pH 7.0

Compound | logD [1] | logD [2]
CC(=O)NCC(=O)N[C@@H](Cc1ccccc1)C(N)=O (Ac-Gly-Phe-NH2) | -0.56 | –
CC(=O)N[C@@H](Cc1ccccc1)C(=O)N[C@H](C(N)=O)C(C)C (Ac-Phe-Val-NH2) | 0.43 | –
CC(=O)N[C@@H](CO)C(=O)N[C@H](C(N)=O)C(C)C (Ac-Ser-Val-NH2) | – | -1.53
CC[C@H](C)[C@H](NC(=O)[C@@H](NC(=O)[C@@H](NC(C)=O)C(C)C)C(C)C)C(N)=O (Ac-Val-Val-Ile-NH2) | – | 0.49
CC(=O)NCC(=O)N[C@@H](CC(C)C)C(N)=O | – | -0.78
CC(=O)N[C@H](C(=O)N[C@@H](C)C(N)=O)C(C)C (Ac-Val-Ala-NH2) | – | -1.14
CC(=O)N[C@@H](Cc1c[nH]c2ccccc12)C(=O)N[C@H](C(N)=O)C(C)C (Ac-Trp-Val-NH2) | 0.73 | –
CC(=O)NC(CC(N)=O)C(=O)NC(C(N)=O)C(C)C (stereo not drawn) (Ac-Asn-Val-NH2; configuration not given here) | – | -1.85
CC(=O)N[C@@H](Cc1ccccc1)C(=O)N[C@@H](CCC(N)=O)C(N)=O | -1.03 | –
CC(=O)N[C@@H](CC(C)C)C(=O)N[C@H](C(N)=O)C(C)C (Ac-Leu-Val-NH2) | – | 0.26
CC(=O)N[C@@H](Cc1ccc(O)cc1)C(=O)N[C@H](C(N)=O)C(C)C | -0.2 | –
CC(=O)N[C@@H](Cc1ccc(O)cc1)C(=O)N[C@@H](Cc1ccccc1)C(N)=O (Ac-Tyr-Phe-NH2) | 0.54 | –
CC(=O)N[C@@H](CCC(N)=O)C(=O)N[C@@H](Cc1ccccc1)C(N)=O (Ac-Gln-Phe-NH2) | -1.14 | –
CC(=O)N[C@@H](Cc1ccccc1)C(=O)NCC(N)=O (Ac-Phe-Gly-NH2) | -0.5 | –
CC(=O)N[C@H](C(=O)N[C@@H](C)C(=O)N[C@H](C(N)=O)C(C)C)C(C)C (Ac-Val-Ala-Val-NH2) | – | -0.67
CC[C@H](C)[C@H](NC(=O)[C@H](Cc1c[nH]c2ccccc12)NC(C)=O)C(=O)NCC(N)=O (Ac-Trp-Ile-Gly-NH2) | 0.62 | –
CC(=O)N[C@@H](Cc1c[nH]c2ccccc12)C(=O)N[C@@H](C)C(=O)N[C@@H](C)C(N)=O (Ac-Trp-Ala-Ala-NH2) | -0.31 | –
CC(=O)N[C@H](C(=O)N[C@H](C(N)=O)C(C)C)[C@@H](C)O (Ac-Thr-Val-NH2) | – | -1.25
CC[C@H](C)[C@H](NC(=O)[C@@H](NC(C)=O)[C@@H](C)O)C(N)=O (Ac-Thr-Ile-NH2) | – | -0.86
CC(=O)N[C@@H](C)C(=O)NCC(=O)N[C@@H](Cc1ccccc1)C(N)=O (Ac-Ala-Gly-Phe-NH2) | -0.71 | –
CC(=O)N[C@@H](Cc1c[nH]c2ccccc12)C(=O)NCC(=O)N[C@@H](Cc1ccccc1)C(N)=O | 0.99 | –
CC(=O)NCC(=O)N[C@@H](C)C(=O)N[C@H](C(N)=O)C(C)C (Ac-Gly-Ala-Val-NH2) | – | -1.56
CC(=O)N[C@@H](C)C(=O)N[C@@H](CC(C)C)C(=O)N[C@H](C(N)=O)C(C)C (Ac-Ala-Leu-Val-NH2) | – | -0.14
CC[C@H](C)[C@H](NC(=O)[C@H](Cc1ccccc1)NC(C)=O)C(=O)NCC(N)=O (Ac-Phe-Ile-Gly-NH2) | 0.34 | –
CC[C@H](C)[C@H](NC(C)=O)C(=O)N[C@@H](Cc1ccccc1)C(=O)N[C@@H](C)C(N)=O (Ac-Ile-Phe-Ala-NH2) | 0.52 | –
CC[C@H](C)[C@H](NC(=O)[C@H](CC(C)C)NC(C)=O)C(N)=O (Ac-Leu-Ile-NH2) | – | 0.68

Compound | logD [1] | logD [2]
CC[C@H](C)[C@H](NC(=O)[C@@H](NC(C)=O)C(C)C)C(=O)NCC(N)=O (Ac-Val-Ile-Gly-NH2) | – | -0.45
CC(=O)NC(C(=O)NC(CCC(N)=O)C(N)=O)C(C)C (stereo not drawn) (Ac-Val-Gln-NH2; configuration not given here) | – | -1.82
CC(=O)NC(CCC(N)=O)C(=O)NC(CC(C)C)C(N)=O (stereo not drawn) (Ac-Gln-Leu-NH2; configuration not given here) | – | -1.32
CC(=O)NC(CCC(N)=O)C(=O)NC(C(N)=O)C(C)C (stereo not drawn) (Ac-Gln-Val-NH2; configuration not given here) | – | -1.85
CC(=O)N[C@@H](CC(C)C)C(=O)N[C@@H](CC(N)=O)C(N)=O | – | -1.3
CC(=O)N[C@H](C(=O)N[C@@H](Cc1ccccc1)C(=O)N[C@@H](C)C(N)=O)C(C)C (Ac-Val-Phe-Ala-NH2) | 0.06 | –
CC(=O)N[C@@H](CC(C)C)C(=O)N[C@H](C(=O)N[C@@H](CC(C)C)C(N)=O)[C@@H](C)O (Ac-Leu-Thr-Leu-NH2) | – | 0.24
CC(=O)N[C@@H](C)C(=O)N[C@@H](Cc1ccc(O)cc1)C(=O)N[C@@H](Cc1ccccc1)C(N)=O (Ac-Ala-Tyr-Phe-NH2) | 0.26 | –
CC(=O)N[C@@H](Cc1ccccc1)C(=O)NCC(=O)N[C@@H](CC(C)C)C(N)=O | 0.6 | –
CC(=O)NCC(=O)N[C@H](C(N)=O)C(C)C (Ac-Gly-Val-NH2) | – | -1.33
CC(=O)N[C@H](C(=O)N[C@@H](C)C(=O)N[C@@H](C)C(N)=O)C(C)C | – | -1.4
CC[C@H](C)[C@H](NC(=O)[C@@H](NC(=O)[C@H](C)NC(C)=O)C(C)C)C(N)=O | – | -0.2
CC(=O)N[C@@H](Cc1ccc(O)cc1)C(=O)N[C@@H](CC(C)C)C(N)=O (Ac-Tyr-Leu-NH2) | 0.32 | –
CC(=O)N[C@H](C(=O)N[C@H](C(N)=O)C(C)C)C(C)C (Ac-Val-Val-NH2) | – | -0.32
CC(=O)N[C@@H](Cc1c[nH]c2ccccc12)C(=O)N[C@@H](C)C(=O)N[C@H](C(N)=O)C(C)C (Ac-Trp-Ala-Val-NH2) | 0.36 | –
CC(=O)N[C@@H](C)C(=O)N[C@@H](CC(C)C)C(N)=O (Ac-Ala-Leu-NH2) | – | -0.54
CC(=O)NCC(=O)N[C@@H](CC(C)C)C(=O)NCC(N)=O (Ac-Gly-Leu-Gly-NH2) | – | -1.23
CC[C@H](C)[C@H](NC(=O)[C@H](CC(N)=O)NC(C)=O)C(N)=O (Ac-Asn-Ile-NH2) | – | -1.43
CC(=O)N[C@@H](C)C(=O)N[C@@H](Cc1ccc(O)cc1)C(=O)N[C@@H](CC(C)C)C(N)=O (Ac-Ala-Tyr-Leu-NH2) | -0.04 | –
CC(=O)NC(CC(N)=O)C(=O)NC(Cc1ccccc1)C(N)=O (stereo not drawn) (Ac-Asn-Phe-NH2; configuration not given here) | -1.14 | –
CC(=O)N[C@@H](CO)C(=O)N[C@@H](Cc1ccccc1)C(N)=O | -0.79 | –
CC(=O)N[C@@H](CC(C)C)C(=O)N[C@@H](CO)C(=O)N[C@@H](Cc1ccccc1)C(N)=O (Ac-Leu-Ser-Phe-NH2) | 0.23 | –
CC[C@H](C)[C@H](NC(C)=O)C(=O)N[C@@H](CC(N)=O)C(N)=O (Ac-Ile-Asn-NH2) | – | -1.41
CC[C@H](C)[C@H](NC(C)=O)C(=O)N[C@H](C(N)=O)C(C)C (Ac-Ile-Val-NH2) | – | 0.16
CC(=O)N[C@@H](C)C(=O)N[C@H](C(N)=O)C(C)C (Ac-Ala-Val-NH2) | – | -1.13
